Laboratory results taken from patent publication US20240409585A1, “MACROCYCLIC IMMUNOMODULATORS” (priority 2021, published 2024).
Numbered stars: 1 amine (or outer) side, 2 acyl side, 3 side chain; on linkers, the order of the positions; unused ones are H or OH. Bridge positions count the residues as written; N and C are the ends. Square brackets hold non-standard residues; d marks the D form. Peptide text beside a SMILES is read from it. * marks the point of attachment. ξ: configuration not given here. Phe(4-COOH) = N[C@@H](Cc1ccc(C(=O)O)cc1)C(=O)O; X16 = O=C([C@H](Cc1ccc2cnccc2c1)N[*:1])[*:2]; Bip = N[C@@H](Cc1ccc(-c2ccccc2)cc1)C(=O)O; Phe(3-Me) = Cc1cccc(C[C@H](N)C(=O)O)c1; Val(3-OH) = CC(C)(O)[C@H](N)C(=O)O; 4Pal = N[C@@H](Cc1ccncc1)C(=O)O; Cha = N[C@@H](CC1CCCCC1)C(=O)O; Cit = NC(=O)NCCC[C@H](N)C(=O)O; Ile(3ξ) = CCC(C)[C@H](N)C(=O)O; Thr(3ξ) = CC(O)[C@H](N)C(=O)O; Pip = O=C(O)[C@@H]1CCCCN1; Carboxymethyl = O=C(O)C*; NMeA = CN[C@@H](C)C(=O)O; Orn = NCCC[C@H](N)C(=O)O; Dab = NCC[C@H](N)C(=O)O; Dap = NC[C@H](N)C(=O)O; NH(CH2)3NH2 = NCCCN*

Target: T1, PE-labeled human PD-L1-Ig binding to Jurkat cell line over-expressing human PD-1 (Jurkat-PD-1) (Homo sapiens, UniProt Q15116)
T1 construct: expressed in transfected cells; host or cells: Jurkat
Experiment: Jurkat-PD-1 Cell Binding High-Content Screening Assay (CBA): Method 1
Details: Jurkat-hPD-1 cells, PE-labeled PD-L1-Ig 20 nM final; read-out: Jurkat HPDL1 PD1 IC50 (uM) (Method 1)

T1 sequence (Q15116 25-288): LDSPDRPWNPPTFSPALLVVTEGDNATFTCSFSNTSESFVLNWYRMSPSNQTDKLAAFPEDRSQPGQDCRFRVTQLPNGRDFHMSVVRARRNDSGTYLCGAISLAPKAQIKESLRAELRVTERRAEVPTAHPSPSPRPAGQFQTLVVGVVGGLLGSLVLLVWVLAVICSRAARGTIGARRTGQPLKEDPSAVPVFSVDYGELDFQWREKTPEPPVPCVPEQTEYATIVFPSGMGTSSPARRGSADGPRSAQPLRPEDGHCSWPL

Structure (SMILES) | IC50
Cc1cccc(C[C@@H]2NC(=O)[C@H](CC(=O)O)NC(=O)[C@H](Cc3ccc(C(=O)O)cc3)NC(=O)[C@H](Cc3ccncc3)NC(=O)CSC[C@@H](C(=O)N[C@@H](C)C(N)=O)NC(=O)[C@H]([C@@H](C)O)NC(=O)[C@H](C(C)C)NC(=O)[C@H](CC(C)C)NC(=O)[C@H](CCN)NC(=O)[C@@H](CC(C)C)NC(=O)[C@H](C)N(C)C(=O)[C@H](CCCNC(N)=O)NC(=O)[C@H](Cc3ccc(-c4ccccc4)cc3)NC(=O)[C@H](C(C)C)NC2=O)c1 [Compound 1431] ({CH2CO}-[4Pal][Phe(4-COOH)]D[Phe(3-Me)]V[Bip][Cit][NMeA][dL][Dab]LVTCA-NH2; thioether N-14) | 0.01 µM
CCC(C)[C@@H]1NC(=O)[C@H](Cc2ccc(-c3ccccc3)cc2)NC(=O)[C@H](C(C)C)NC(=O)[C@H](Cc2c[nH]c3ccccc23)NC(=O)[C@H](CC(=O)O)NC(=O)[C@H](Cc2ccc(O)cc2)NC(=O)[C@H](C(C)O)NC(=O)CSC[C@@H](C(=O)NCCCN)NC(=O)[C@H](C(C)O)NC(=O)[C@H](C(C)(C)O)NC(=O)[C@H](CC2CCCCC2)NC(=O)[C@H](CC(N)=O)NC(=O)[C@@H](CC(C)C)NC(=O)[C@H](C)N(C)C1=O (stereo partly drawn) [Compound 2266] ({CH2CO}-[Thr(3ξ)]YDWV[Bip][Ile(3ξ)][NMeA][dL]N[Cha][Val(3-OH)][Thr(3ξ)]C-{NH(CH2)3NH2}; thioether N-14) | 0.15 µM
Cc1cccc(C[C@@H]2NC(=O)[C@H](CC(=O)O)NC(=O)[C@H](Cc3ccncc3)NC(=O)[C@H](Cc3ccc(OCC(=O)O)cc3)NC(=O)CSC[C@@H](C(=O)N[C@@H](C)C(N)=O)NC(=O)[C@H](CO)NC(=O)[C@H](C(C)C)NC(=O)[C@H](CC(C)C)NC(=O)[C@H](CC(N)=O)NC(=O)[C@@H](CC(C)C)NC(=O)[C@H](C)N(C)C(=O)[C@H](C(C)C)NC(=O)[C@H](Cc3ccc(-c4ccccc4)cc3)NC(=O)[C@H](CC(C)C)NC2=O)c1 [Compound 1589] ({CH2CO}-Y(Carboxymethyl)[4Pal]D[Phe(3-Me)]L[Bip]V[NMeA][dL]NLVSCA-NH2; thioether N-14) | 0.03 µM
CCC(C)[C@@H]1NC(=O)[C@H](Cc2ccc(-c3ccccc3)cc2)NC(=O)[C@H](C(C)C)NC(=O)[C@H](Cc2c[nH]c3ccccc23)NC(=O)[C@H](CC(=O)O)NC(=O)[C@H](Cc2ccc(OCC(=O)O)cc2)NC(=O)[C@H](Cc2cnc[nH]2)NC(=O)CSC[C@@H](C(=O)N[C@@H](CCN)C(N)=O)NC(=O)[C@H](CO)NC(=O)[C@H](C(C)(C)O)NC(=O)[C@H](CC2CCCCC2)NC(=O)[C@H](CCN)NC(=O)[C@@H](CC(C)C)NC(=O)[C@H](C)N(C)C1=O (stereo partly drawn) [Compound 2204] ({CH2CO}-HY(Carboxymethyl)DWV[Bip][Ile(3ξ)][NMeA][dL][Dab][Cha][Val(3-OH)]SC[Dab]-NH2; thioether N-14) | 0.01 µM
CCC(C)[C@@H]1NC(=O)[C@H](Cc2ccc(-c3ccccc3)cc2)NC(=O)[C@H](C(C)C)NC(=O)[C@H](Cc2c[nH]c3ccccc23)NC(=O)[C@H](CC(=O)O)NC(=O)[C@H](Cc2ccc(OCC(=O)O)cc2)NC(=O)[C@H](CN)NC(=O)CSC[C@@H](C(=O)N[C@@H](C)C(N)=O)NC(=O)[C@H](C(C)O)NC(=O)[C@H](C(C)C)NC(=O)[C@H](CC(C)C)NC(=O)[C@H](CCN)NC(=O)[C@@H](CC(C)C)NC(=O)[C@H](C)N(C)C1=O (stereo partly drawn) [Compound 2084] ({CH2CO}-[Dap]Y(Carboxymethyl)DWV[Bip][Ile(3ξ)][NMeA][dL][Dab]LV[Thr(3ξ)]CA-NH2; thioether N-14) | 0.07 µM
Cc1cccc(C[C@@H]2NC(=O)[C@H](CC(=O)O)NC(=O)[C@H](Cc3ccc(C(=O)O)cc3)NC(=O)[C@H](Cc3ccc(OCC(=O)O)cc3)NC(=O)CSC[C@@H](C(=O)N[C@H](CC(N)=O)C(N)=O)NC(=O)[C@H](CO)NC(=O)[C@H](C(C)C)NC(=O)[C@H](CC(C)C)NC(=O)[C@H](CCN)NC(=O)[C@@H](CC(C)C)NC(=O)[C@H](C)N(C)C(=O)[C@H](C(C)C)NC(=O)[C@H](Cc3ccc(-c4ccccc4)cc3)NC(=O)[C@H](CC(C)C)NC2=O)c1 [Compound 2112] ({CH2CO}-Y(Carboxymethyl)[Phe(4-COOH)]D[Phe(3-Me)]L[Bip]V[NMeA][dL][Dab]LVSC[dN]-NH2; thioether N-14) | 0.02 µM
CC(C)C[C@@H]1NC(=O)[C@H](CCN)NC(=O)[C@@H](CC(C)C)NC(=O)[C@H](C)N(C)C(=O)[C@H](CCC(=O)O)NC(=O)[C@H](Cc2ccc(-c3ccccc3)cc2)NC(=O)[C@H](C(C)C)NC(=O)[C@H](Cc2c[nH]c3ccccc23)NC(=O)[C@H](CC(=O)O)NC(=O)[C@H](Cc2ccc(OCC(=O)O)cc2)NC(=O)[C@H](Cc2ccncc2)NC(=O)CSC[C@@H](C(=O)N[C@@H](C)C(N)=O)NC(=O)[C@H](CO)NC(=O)[C@H](C(C)C)NC1=O [Compound 1575] ({CH2CO}-[4Pal]Y(Carboxymethyl)DWV[Bip]E[NMeA][dL][Dab]LVSCA-NH2; thioether N-14) | 0.05 µM
CCC(C)[C@@H]1NC(=O)[C@H](Cc2ccc(-c3ccccc3)cc2)NC(=O)[C@H](C(C)C)NC(=O)[C@H](Cc2c[nH]c3ccccc23)NC(=O)[C@H](CC(=O)O)NC(=O)[C@H](Cc2ccc(O)cc2)NC(=O)[C@H](Cc2ccncc2)NC(=O)CSC[C@@H](C(=O)N[C@@H](CN)C(N)=O)NC(=O)[C@H](C(C)O)NC(=O)[C@H](C(C)C)NC(=O)[C@H](CC2CCCCC2)NC(=O)[C@H](CC(N)=O)NC(=O)[C@@H](CC(C)C)NC(=O)[C@H](C)N(C)C1=O (stereo partly drawn) [Compound 2157] ({CH2CO}-[4Pal]YDWV[Bip][Ile(3ξ)][NMeA][dL]N[Cha]V[Thr(3ξ)]C[Dap]-NH2; thioether N-14) | 0.04 µM
Cc1cccc(C[C@@H]2NC(=O)[C@H](CC(=O)O)NC(=O)[C@H](Cc3ccc(C(=O)O)cc3)NC(=O)[C@H](Cc3ccncc3)NC(=O)CSC[C@@H](C(=O)N[C@@H](CCN)C(N)=O)NC(=O)[C@H](CO)NC(=O)[C@H](C(C)(C)O)NC(=O)[C@H](CC3CCCCC3)NC(=O)[C@H](CCN)NC(=O)[C@@H](CC(C)C)NC(=O)[C@H](C)N(C)C(=O)[C@H](Cc3ccc(C(=O)O)cc3)NC(=O)[C@H](Cc3ccc(-c4ccccc4)cc3)NC(=O)[C@H](Cc3ccc(OCC(=O)O)cc3)NC2=O)c1 [Compound 2184] ({CH2CO}-[4Pal][Phe(4-COOH)]D[Phe(3-Me)]Y(Carboxymethyl)[Bip][Phe(4-COOH)][NMeA][dL][Dab][Cha][Val(3-OH)]SC[Dab]-NH2; thioether N-14) | 0.04 µM
CC(C)C[C@@H]1NC(=O)[C@H](CCN)NC(=O)[C@@H](CC(C)C)NC(=O)[C@H](C)N(C)C(=O)[C@H](CCCNC(=N)N)NC(=O)[C@H](Cc2ccc(-c3ccccc3)cc2)NC(=O)[C@H](C(C)C)NC(=O)[C@H](Cc2c[nH]c3ccccc23)NC(=O)[C@H](CC(=O)O)NC(=O)[C@H](Cc2cnc[nH]2)NC(=O)[C@H](CC(N)=O)NC(=O)CSC[C@@H](C(=O)N[C@@H](C)C(N)=O)NC(=O)[C@H]([C@@H](C)O)NC(=O)[C@H](C(C)C)NC1=O [Compound 1137] ({CH2CO}-NHDWV[Bip]R[NMeA][dL][Dab]LVTCA-NH2; thioether N-14) | 0.27 µM
Cc1cccc(C[C@@H]2NC(=O)[C@H](CC(=O)O)NC(=O)[C@H](Cc3ccc(OCC(=O)O)cc3)NC(=O)[C@H](Cc3ccc(OCC(=O)O)cc3)NC(=O)CSC[C@@H](C(N)=O)NC(=O)[C@H](CCCN)NC(=O)[C@H](C(C)C)NC(=O)[C@H](CC3CCCCC3)NC(=O)[C@H](CCN)NC(=O)[C@@H](CC(C)C)NC(=O)[C@H](C)N(C)C(=O)[C@H](Cc3ccc(OCC(=O)O)cc3)NC(=O)[C@H](Cc3ccc(-c4ccccc4)cc3)NC(=O)[C@H](Cc3ccc(OCC(=O)O)cc3)NC2=O)c1 [Compound 1652] ({CH2CO}-Y(Carboxymethyl)Y(Carboxymethyl)D[Phe(3-Me)]Y(Carboxymethyl)[Bip]Y(Carboxymethyl)[NMeA][dL][Dab][Cha]V[Orn]C-NH2; thioether N-14) | 0.03 µM
CCNC(=O)[C@H](CCN)NC(=O)[C@@H]1CSCC(=O)N[C@@H](Cc2ccncc2)C(=O)N[C@@H](Cc2ccc(OCC(=O)O)cc2)C(=O)N[C@@H](CC(=O)O)C(=O)N[C@@H](Cc2cccc(C)c2)C(=O)N[C@@H](Cc2ccc(OCC(=O)O)cc2)C(=O)N[C@@H](Cc2ccc(-c3ccccc3)cc2)C(=O)N[C@@H](Cc2ccc(OCC(=O)O)cc2)C(=O)N(C)[C@@H](C)C(=O)N[C@H](CC(C)C)C(=O)N[C@@H](CCN)C(=O)N[C@@H](CC2CCCCC2)C(=O)N[C@@H](C(C)C)C(=O)N[C@@H]([C@@H](C)O)C(=O)N1 [Compound 1858] ({CH2CO}-[4Pal]Y(Carboxymethyl)D[Phe(3-Me)]Y(Carboxymethyl)[Bip]Y(Carboxymethyl)[NMeA][dL][Dab][Cha]VTC[Dab]-NHEt; thioether N-14) | 0.01 µM
Cc1cccc(C[C@@H]2NC(=O)[C@H](CC(=O)O)NC(=O)[C@H](Cc3ccc(OCC(=O)O)cc3)NC(=O)[C@H](CN)NC(=O)CSC[C@@H](C(N)=O)NC(=O)[C@H](CO)NC(=O)[C@H](C(C)C)NC(=O)[C@H](CC3CCCCC3)NC(=O)[C@H](CCN)NC(=O)[C@@H](CC(C)C)NC(=O)[C@@H]3CCCCN3C(=O)[C@H](Cc3ccc(OCC(=O)O)cc3)NC(=O)[C@H](Cc3ccc(-c4ccccc4)cc3)NC(=O)[C@H](Cc3ccc(OCC(=O)O)cc3)NC2=O)c1 [Compound 1892] ({CH2CO}-[Dap]Y(Carboxymethyl)D[Phe(3-Me)]Y(Carboxymethyl)[Bip]Y(Carboxymethyl)[Pip][dL][Dab][Cha]VSC-NH2; thioether N-14) | 0.06 µM
CCC(C)[C@@H]1NC(=O)[C@H](Cc2ccc(-c3ccccc3)cc2)NC(=O)[C@H](C(C)C)NC(=O)[C@H](Cc2c[nH]c3ccccc23)NC(=O)[C@H](CC(=O)O)NC(=O)[C@H](Cc2ccc(O)cc2)NC(=O)[C@H](Cc2ccc3cnccc3c2)NC(=O)CSC[C@@H](C(=O)N[C@@H](C)C(N)=O)NC(=O)[C@H](C(C)O)NC(=O)[C@H](C(C)C)NC(=O)[C@H](CC2CCCCC2)NC(=O)[C@H](CCN)NC(=O)[C@@H](CC(C)C)NC(=O)[C@H](C)N(C)C1=O (stereo partly drawn) [Compound 2046] ({CH2CO}-[X16]YDWV[Bip][Ile(3ξ)][NMeA][dL][Dab][Cha]V[Thr(3ξ)]CA-NH2; thioether N-14) | 0.02 µM
